# Tested on: 171881-019-R-J1-PDC tumor spheroid viability
# Assay: Anticancer human tumor 171881-019-R-J1-PDC patient-derived invasive breast carcinoma cell line growth inhibition [PI3K]
# Settings: spheroids with HUVEC and MSC; for IC50: curve of first compound; for viability, T/C: stronger effect = lower value
# Summary of the method: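 Spheroid viability read-out. Co-cultures contained the tumor line plus HUVEC and human MSCs. Each agent was paired with a PI3K inhibitor (inavolisib, alpelisib, duvelisib, copanlisib) across half-log dilutions starting at clinical Cmax, or at 10 microM when Cmax was unknown.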
# [1] = second compound 0.00316 µM, first compound 0.0316 µM
# [2] = second compound 0.00316 µM, first compound 0.1 µM
# [3] = second compound 0.00316 µM, first compound 0.316 µM
# [4] = second compound 0.00316 µM, first compound 1 µM
# [5] = second compound 0.00316 µM, first compound 3.16 µM
# [6] = second compound 0.00316 µM, first compound 10 µM
# [7] = second compound 0.01 µM, first compound 0.0316 µM
# [8] = second compound 0.01 µM, first compound 0.1 µM
# [9] = second compound 0.01 µM, first compound 0.316 µM
# [10] = second compound 0.01 µM, first compound 1 µM
# [11] = second compound 0.01 µM, first compound 3.16 µM
# [12] = second compound 0.01 µM, first compound 10 µM
# [13] = second compound 0.0316 µM, first compound 0.0316 µM
# [14] = second compound 0.0316 µM, first compound 0.1 µM
# [15] = second compound 0.0316 µM, first compound 0.316 µM
# [16] = second compound 0.0316 µM, first compound 1 µM
# [17] = second compound 0.0316 µM, first compound 3.16 µM
# [18] = second compound 0.0316 µM, first compound 10 µM
# [19] = second compound 0.1 µM, first compound 0.0316 µM
# [20] = second compound 0.1 µM, first compound 0.1 µM
# [21] = second compound 0.1 µM, first compound 0.316 µM
# [22] = second compound 0.1 µM, first compound 1 µM
# [23] = second compound 0.1 µM, first compound 3.16 µM
# [24] = second compound 0.1 µM, first compound 10 µM
# [25] = second compound 0.316 µM, first compound 0.0316 µM
# [26] = second compound 0.316 µM, first compound 0.1 µM
# [27] = second compound 0.316 µM, first compound 0.316 µM
# [28] = second compound 0.316 µM, first compound 1 µM
# [29] = second compound 0.316 µM, first compound 3.16 µM
# [30] = second compound 0.316 µM, first compound 10 µM
# [31] = second compound 1 µM, first compound 0.0316 µM
# [32] = second compound 1 µM, first compound 0.1 µM
# [33] = second compound 1 µM, first compound 0.316 µM
# [34] = second compound 1 µM, first compound 1 µM
# [35] = second compound 1 µM, first compound 3.16 µM
# [36] = second compound 1 µM, first compound 10 µM
# 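Also: spheroids exposed to compound for 7 days before viability read.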
# 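For viability, T/C in this document: 100% = DMSO vehicle-treated spheroids.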
smiles,measurement,setting,value
C=CC(=O)N1CCN(c2nc(=O)n(-c3c(C)ccnc3C(C)C)c3nc(-c4c(O)cccc4F)c(F)cc23)C(C)C1 (stereo unspecified) + CC(Nc1ccc2c(c1)OCCn1cc(N3C(=O)OCC3C(F)F)nc1-2)C(N)=O,IC50,second compound 0.00316 µM,9110 nM
same,IC50,second compound 0.01 µM,7320 nM
same,IC50,second compound 0.0316 µM,3970 nM
same,IC50,second compound 0.1 µM,< 31.6 nM
same,IC50,second compound 0.316 µM,< 31.6 nM
same,IC50,second compound 1 µM,< 31.6 nM
same,"viability, T/C",[1],96.8%
same,"viability, T/C",[2],90.1%
same,"viability, T/C",[3],92.8%
same,"viability, T/C",[4],93.1%
same,"viability, T/C",[5],88.5%
same,"viability, T/C",[6],46.6%
same,"viability, T/C",[7],79.5%
same,"viability, T/C",[8],84.9%
same,"viability, T/C",[9],78.5%
same,"viability, T/C",[10],84.6%
same,"viability, T/C",[11],79%
same,"viability, T/C",[12],39.1%
same,"viability, T/C",[13],52.7%
same,"viability, T/C",[14],56.2%
same,"viability, T/C",[15],52.1%
same,"viability, T/C",[16],57.7%
same,"viability, T/C",[17],54.7%
same,"viability, T/C",[18],31.7%
same,"viability, T/C",[19],37.6%
same,"viability, T/C",[20],37.8%
same,"viability, T/C",[21],40.2%
same,"viability, T/C",[22],36.3%
same,"viability, T/C",[23],39.2%
same,"viability, T/C",[24],22.1%
same,"viability, T/C",[25],26.1%
same,"viability, T/C",[26],29.2%
same,"viability, T/C",[27],27.8%
same,"viability, T/C",[28],30%
same,"viability, T/C",[29],26.7%
same,"viability, T/C",[30],12.6%
same,"viability, T/C",[31],20.2%
same,"viability, T/C",[32],21.7%
same,"viability, T/C",[33],20.7%
same,"viability, T/C",[34],22.6%
same,"viability, T/C",[35],20.7%
same,"viability, T/C",[36],10.7%
CC(Cn1ccc(-c2ccc(C#N)c(Cl)c2)n1)NC(=O)c1cc(C(C)O)[nH]n1 (stereo unspecified) + CC(Nc1ccc2c(c1)OCCn1cc(N3C(=O)OCC3C(F)F)nc1-2)C(N)=O,IC50,second compound 0.00316 µM,> 10000 nM
same,IC50,second compound 0.01 µM,> 10000 nM
same,IC50,second compound 0.0316 µM,4210 nM
same,IC50,second compound 0.1 µM,< 31.6 nM
same,IC50,second compound 0.316 µM,< 31.6 nM
same,IC50,second compound 1 µM,< 31.6 nM
same,"viability, T/C",[1],74.5%
same,"viability, T/C",[2],85%
same,"viability, T/C",[3],92%
same,"viability, T/C",[4],93.9%
same,"viability, T/C",[5],88.5%
same,"viability, T/C",[6],54.3%
same,"viability, T/C",[7],75.1%
same,"viability, T/C",[8],80.9%
same,"viability, T/C",[9],78.6%
same,"viability, T/C",[10],80.5%
same,"viability, T/C",[11],83.4%
same,"viability, T/C",[12],57.7%
same,"viability, T/C",[13],50.2%
same,"viability, T/C",[14],57.4%
same,"viability, T/C",[15],54.4%
same,"viability, T/C",[16],53.7%
same,"viability, T/C",[17],59.2%
same,"viability, T/C",[18],35.1%
same,"viability, T/C",[19],41.1%
same,"viability, T/C",[20],36.2%
same,"viability, T/C",[21],38.5%
same,"viability, T/C",[22],39.8%
same,"viability, T/C",[23],39%
same,"viability, T/C",[24],27.3%
same,"viability, T/C",[25],26.7%
same,"viability, T/C",[26],26.5%
same,"viability, T/C",[27],25.8%
same,"viability, T/C",[28],27%
same,"viability, T/C",[29],25.8%
same,"viability, T/C",[30],19.4%
same,"viability, T/C",[31],19.6%
same,"viability, T/C",[32],20.6%
same,"viability, T/C",[33],19.7%
same,"viability, T/C",[34],20.8%
same,"viability, T/C",[35],19.1%
same,"viability, T/C",[36],14.3%
Cn1nccc1Nc1nccc(-c2ccn(C(CO)c3ccc(Cl)c(F)c3)c(=O)c2)n1 (stereo unspecified) + CC(Nc1ccc2c(c1)OCCn1cc(N3C(=O)OCC3C(F)F)nc1-2)C(N)=O,IC50,second compound 0.00316 µM,265 nM
same,IC50,second compound 0.01 µM,113 nM
same,IC50,second compound 0.0316 µM,< 31.6 nM
same,IC50,second compound 0.1 µM,< 31.6 nM
same,IC50,second compound 0.316 µM,< 31.6 nM
same,IC50,second compound 1 µM,< 31.6 nM
same,"viability, T/C",[1],92.5%
same,"viability, T/C",[2],67.2%
same,"viability, T/C",[3],46.7%
same,"viability, T/C",[4],33.7%
same,"viability, T/C",[5],22%
same,"viability, T/C",[6],19.2%
same,"viability, T/C",[7],69.6%
same,"viability, T/C",[8],53.9%
same,"viability, T/C",[9],30.6%
same,"viability, T/C",[10],27.4%
same,"viability, T/C",[11],18.2%
same,"viability, T/C",[12],15%
same,"viability, T/C",[13],47.4%
same,"viability, T/C",[14],37.9%
same,"viability, T/C",[15],23.1%
same,"viability, T/C",[16],17.1%
same,"viability, T/C",[17],11.8%
same,"viability, T/C",[18],9.67%
same,"viability, T/C",[19],33.5%
same,"viability, T/C",[20],23.3%
same,"viability, T/C",[21],15.9%
same,"viability, T/C",[22],9.87%
same,"viability, T/C",[23],7.9%
same,"viability, T/C",[24],5.46%
same,"viability, T/C",[25],21.6%
same,"viability, T/C",[26],16.9%
same,"viability, T/C",[27],10.6%
same,"viability, T/C",[28],6.63%
same,"viability, T/C",[29],4.45%
same,"viability, T/C",[30],2.82%
same,"viability, T/C",[31],18.3%
same,"viability, T/C",[32],13.9%
same,"viability, T/C",[33],7.66%
same,"viability, T/C",[34],4.72%
same,"viability, T/C",[35],3.76%
same,"viability, T/C",[36],2.26%
